# Columns and labels:
# [1] = tested on: Mycobacterium vaccae 10670 and Mycobacterium fortuitum B; test: Agar diffusion assay; assay type: cell-based
# [2] = mice, po once a day, 100 mg/kg five days, 2 days rest, 200 mg/kg five days
# [3] = tested on: panel of nontuberculosis mycobacteria and other bacteria (Gram positive and negative) as well as select strains of yeast; test: MIC against panel of nontuberculosis mycobacteria, other bacteria and yeast; assay type: cell-based; settings: all strains of the panel; MIC's equal to negative control
# [4] = tested on: Mycobacterium tuberculosis H37Rv; test: Microplate Alamar Blue Assay; assay type: cell-based; settings: for MIC: medium not specified; for anti-TB activity (in words): qualitative statement
# [5] = Metabolic stability in rat liver microsomes; assay type: in vitro ADME, Sprague-Dawley rat; settings: in vitro metabolism
# VERO cells = test: VERO cytotoxicity assay; settings: compared with non-methyl analog
# [6] = tested on: Mycobacteria tuberculosis H37Rv; settings: earlier work of the authors; cited from earlier work
# [7] = Mycobacterium tuberculosis, H37RV
compound,measurement,setting,value
"O=C(OCc1ccccc1)c1coc(-c2ccccc2Cl)n1 [Compound 68, Benzyl 2-(2-chlorophenyl)oxazole-4-carboxylate]",zones of inhibition,[1],some zones of inhibition
same,"tolerability (body weight, gross appearance and behavior)",[2],well tolerated
same,MIC against panel (in words),[3],inactive
same,MIC,[4]; [7],< 1 µM
"O=C(OCc1ccccc1)c1coc(-c2ccc(F)c([N+](=O)[O-])c2)n1 [Compound 66, Benzyl 2-(4-fluoro-3-nitrophenyl)oxazole-4-carboxylate]",zones of inhibition,[1],some zones of inhibition
same,MIC against panel (in words),[3],inactive
same,MIC,[4]; [7],< 1 µM
"O=C(OCc1ccccc1)[C@@H]1COC(c2ccccc2)=N1 [Compound 15, (S)-Benzyl 4,5-dihydro-2-phenyloxazole-4-carboxylate]",zones of inhibition,[1],some zones of inhibition
same,"tolerability (body weight, gross appearance and behavior)",[2],well tolerated
same,major metabolite,[5],the corresponding carboxylic acid
same,MIC against panel (in words),[3],inactive
O=C(OCc1ccccc1)c1coc(-c2cccc(F)c2)n1 [Compound 89],MIC,[4]; [7],< 1 µM
"O=C(OCc1ccccc1)[C@@H]1COC(c2ccccc2OCc2ccccc2)=N1 [Compound 3, (S)-Benzyl 2-(2-(benzyloxy)phenyl)-4,5-dihydrooxazole-4-carboxylate]","tolerability (body weight, gross appearance and behavior)",[2],well tolerated
Cc1oc(-c2ccccc2)nc1C(=O)OCc1ccccc1 [Compound 109],toxicity in the VERO assay (in words),VERO cells,greatly increased toxicity
same,anti-TB activity (in words),[4],diminished anti-TB activity
COc1ccc(-c2nc(C(=O)OCc3ccccc3)c(C)o2)cc1 [Compound 110],anti-TB activity (in words),[4],diminished anti-TB activity
mycobactin T,effect on growth of Mycobacteria tuberculosis H37Rv,[6],promotes growth
O=C(OCc1ccccc1)c1coc(-c2ccc([N+](=O)[O-])cc2F)n1 [Compound 70],MIC,[4]; [7],< 1 µM
O=C(OCc1ccccc1)[C@@H]1COC(Cc2ccccc2)=N1 [Compound 43],anti-TB activity (in words),[4],diminished activity
COC(=O)[C@@H]1COC(c2ccc([N+](=O)[O-])cc2)=N1 [Compound 27],anti-TB activity (in words),[4],considerably less active
Cc1oc(-c2ccc(F)cc2[N+](=O)[O-])nc1C(=O)OCc1ccccc1 [Compound 111],anti-TB activity (in words),[4],diminished anti-TB activity
COc1ccc(CC2=N[C@H](C(=O)OCc3ccccc3)CO2)cc1 [Compound 44],anti-TB activity (in words),[4],diminished activity
CCCCCCCCCCCCCCCC(=O)N(O)CCCC[C@H](NC(=O)[C@@H]1COC(c2ccccc2O)=N1)C(=O)O[C@@H](C)CC(=O)N[C@H]1CCCCN(O)C1=O [Mycobactin S],effect on growth of Mycobacteria tuberculosis H37Rv,[6],inhibits the growth
O=C(O)[C@@H]1COC(c2ccccc2O)=N1 [Compound 4],anti-TB activity (in words),[4],lost all activity
"O=C(OCc1ccccc1)c1coc(-c2ccccc2OCc2ccccc2)n1 [Compound 63, Benzyl 2-(2-(benzyloxy)phenyl)oxazole-4-carboxylate]",zones of inhibition,[1],some zones of inhibition
same,"tolerability (body weight, gross appearance and behavior)",[2],well tolerated
same,MIC against panel (in words),[3],inactive
"O=C(OCc1ccccc1)c1coc(-c2ccccc2)n1 [Compound 65, Benzyl 2-phenyloxazole-4-carboxylate]",zones of inhibition,[1],some zones of inhibition
same,"tolerability (body weight, gross appearance and behavior)",[2],well tolerated
same,MIC against panel (in words),[3],inactive
same,MIC,[4]; [7],< 1 µM
same,MIC,[4],< 0.5 µM
O=C(OCc1ccccc1)c1coc(-c2cncc(-c3ccccc3)c2)n1 [Compound 78],MIC,[4]; [7],< 1 µM
"COc1ccc(-c2nc(C(=O)OCc3ccccc3)co2)cc1 [Compound 60, Benzyl 2-(4-methoxyphenyl)oxazole-4-carboxylate]",zones of inhibition,[1],some zones of inhibition
same,"tolerability (body weight, gross appearance and behavior)",[2],well tolerated
same,MIC against panel (in words),[3],inactive
O=C(OCc1ccccc1)c1coc(-c2cccc(Cl)c2)n1 [Compound 59],MIC,[4]; [7],< 1 µM
COC(=O)[C@@H]1COC(c2cccc(Cl)c2)=N1 [Compound 19],anti-TB activity (in words),[4],considerably less active
CCCCCCCCCCCCCCCC(=O)N(O)CCCC[C@H](NC(=O)[C@@H]1COC(c2ccccc2O)=N1)C(=O)OC[C@H](NC(=O)OC(C)(C)C)C(=O)N[C@H]1CCCCN(O)C1=O [Compound 2],effect on growth of Mycobacteria tuberculosis H37Rv,[6],potent inhibition of TB growth
COC(=O)[C@@H]1COC(c2ccccc2OCc2ccccc2)=N1 [Compound 12],anti-TB activity (in words),[4],considerably less active
"O=C(OCc1ccccc1)[C@@H]1COC(c2ccc(F)c([N+](=O)[O-])c2)=N1 [Compound 29, (S)-Benzyl 2-(4-fluoro-3-nitrophenyl)-4,5-dihydrooxazole-4-carboxylate]",zones of inhibition,[1],some zones of inhibition
same,"tolerability (body weight, gross appearance and behavior)",[2],well tolerated
same,MIC against panel (in words),[3],inactive
